Here are results for 18 compounds from patent publication US9056056B2, “Processing for dispersing amino acids” (N.V. Nutricia, priority 2007, dated 2015).

The conditions of data set [1]: according to Eisenburg et al., Faraday Symp. Chem. Soc. 17:109-120 (1982); cited from earlier work.
Data set [2] can be described thus: Wettability (wetting time), method of International IDF Standard 87:1979. The settings on record: for wetting time: amino acid not coated; for effect of coating on the wetting time: FIG. 1, coated versus uncoated amino acid. It is filed as physicochemical. The text has this:
The wettability (wetting time) can be determined using the method of International IDF Standard 87:1979.

For `N[C@@H](Cc1ccccc1)C(=O)O` [Phe, phenylalanine], the “Hydrophobicity of amino acids (side chain hydrophobicity, SCH)” value (“Hydrophobicity of amino acids” for short) in data set [1] is given as “+2.5 kJ/mol”.

With `CC[C@H](C)[C@H](N)C(=O)O` [Ile, isoleucine], the “Hydrophobicity of amino acids” value in data set [1] is “+3.1 kJ/mol”.

Regarding `N[C@@H](CC(=O)O)C(=O)O` [Asp], the “Hydrophobicity of amino acids” value in data set [1] is -0.717 kcal/mol.

For `O=C(O)[C@@H]1CCCN1` [Pro], the “Hydrophobicity of amino acids” value in data set [1] is -0.0693 kcal/mol.

`N[C@@H](CS)C(=O)O` [Cys, cysteine]: the “Hydrophobicity of amino acids” value in data set [1] is listed as “+0.17 kJ/mol”.

In the case of `N=C(N)NCCC[C@H](N)C(=O)O` [Arg], in data set [1], the “Hydrophobicity of amino acids” value is -1.79 kcal/mol.

As for `NCC(=O)O` [Gly, glycine], the wetting time result in data set [2] is “short wetting time”. The “Hydrophobicity of amino acids” value in data set [1] is “+0.67 kJ/mol”.

Take `N[C@@H](CO)C(=O)O` [Ser]: the “Hydrophobicity of amino acids” value in data set [1] is -0.263 kcal/mol.

As to `NCCCC[C@H](N)C(=O)O` [Lys, lysine], the “Hydrophobicity of amino acids” value in data set [1] is -1.1 kcal/mol.

In the case of `C[C@@H](O)[C@H](N)C(=O)O` [Thr, threonine], in data set [1], the “Hydrophobicity of amino acids” value was -0.179 kcal/mol.

For the compound `NC(=O)C[C@H](N)C(=O)O` [Asn], in data set [1], the “Hydrophobicity of amino acids” value is -0.645 kcal/mol.

For `CSCC[C@H](N)C(=O)O` [Met, methionine], in data set [1], the “Hydrophobicity of amino acids” value is “+1.1 kJ/mol”.

Take `C[C@H](N)C(=O)O` [Ala]: in data set [2], the “effect of coating on the wetting time” value is reported as “no or only a minor effect” and the wetting time entry was “short wetting time”. Besides, in data set [1], the “Hydrophobicity of amino acids” value is given as “+1.0 kJ/mol”.

`N[C@@H](Cc1c[nH]c2ccccc12)C(=O)O` [Trp, tryptophan]: the “Hydrophobicity of amino acids” value in data set [1] is recorded as “+1.5 kJ/mol”.

With `N[C@@H](Cc1ccc(O)cc1)C(=O)O` [Tyr], in data set [2], the “effect of coating on the wetting time” value was “no or only a minor effect” and the wetting time entry is given as “short wetting time”. Further, the “Hydrophobicity of amino acids” value in data set [1] was “+0.08 kJ/mol”.

Take `N[C@@H](Cc1c[nH]cn1)C(=O)O` [His]: in data set [1], the “Hydrophobicity of amino acids” value was -0.406 kcal/mol.

Consider `N[C@@H](CCC(=O)O)C(=O)O` [Glu], for which the “Hydrophobicity of amino acids” value in data set [1] was -0.621 kcal/mol.

Regarding `CC(C)[C@H](N)C(=O)O` [Val, valine], the “Hydrophobicity of amino acids” value in data set [1] is on record as “+2.3 kJ/mol”.
